Where two headings read alike, the source gives them in different places.
Key:
Type in all cases: cell-based, Diaphorina citri
[1] = system: neuron 6C (rhinarial plate on flagellomere 6); assay: single-sensillum electrophysiology, odor response of neuron 6C; settings: Table 1; odor diluted to 1%, 50 μL in cartridge
[2] = system: neuron 2A (rhinarial plate on flagellomere 2); assay: single-sensillum electrophysiology, odor response of neuron 2A; settings: Table 1; odor diluted to 1%, 50 μL in cartridge
[3] = system: neuron 7B (rhinarial plate on flagellomere 7)
[4] = system: neuron 4B (rhinarial plate on flagellomere 4)
[5] = system: neuron 4A (rhinarial plate on flagellomere 4); assay: single-sensillum electrophysiology, odor response of neuron 4A; settings: Table 1; odor diluted to 1%, 50 μL in cartridge
[6] = system: neuron 7C (rhinarial plate on flagellomere 7); assay: single-sensillum electrophysiology, odor response of neuron 7C; settings: Table 1; odor diluted to 1%, 50 μL in cartridge
[7] = system: neuron 2C (rhinarial plate on flagellomere 2); assay: single-sensillum electrophysiology, odor response of neuron 2C; settings: Table 1; odor diluted to 1%, 50 μL in cartridge
[8] = system: neuron 4C (rhinarial plate on flagellomere 4); assay: single-sensillum electrophysiology, odor response of neuron 4C; settings: Table 1; odor diluted to 1%, 50 μL in cartridge
[9] = system: neuron 7A (rhinarial plate on flagellomere 7); assay: single-sensillum electrophysiology, odor response of neuron 7A; settings: Table 1; odor diluted to 1%, 50 μL in cartridge
[10] = system: neuron 6A (rhinarial plate on flagellomere 6); assay: single-sensillum electrophysiology, odor response of neuron 6A; settings: Table 1; odor diluted to 1%, 50 μL in cartridge
[11] = system: neuron 6B (rhinarial plate on flagellomere 6); assay: single-sensillum electrophysiology, odor response of neuron 6B; settings: Table 1; odor diluted to 1%, 50 μL in cartridge
[12] = system: neuron 2B (rhinarial plate on flagellomere 2); assay: single-sensillum electrophysiology, odor response of neuron 2B; settings: Table 1; odor diluted to 1%, 50 μL in cartridge
[13] = Table 1, odor diluted to 1%, 50 μL in cartridge

CCCCCOC(C)=O [pentyl acetate]
0: odor response (frequency of action potentials during stimulus minus baseline), 6C [1] | odor response (frequency of action potentials during stimulus minus baseline), 2A [2] | odor response (frequency of action potentials during stimulus minus baseline), 7B [3, 13] | odor response (frequency of action potentials during stimulus minus baseline), 4A [5] | odor response (frequency of action potentials during stimulus minus baseline), 7C [6] | odor response (frequency of action potentials during stimulus minus baseline), 4C [8] | odor response (frequency of action potentials during stimulus minus baseline), 7A [9] | odor response (frequency of action potentials during stimulus minus baseline), 6A [10] | odor response (frequency of action potentials during stimulus minus baseline), 2B [12]
+ (+, >50 spikes/second): odor response (frequency of action potentials during stimulus minus baseline), 4B [4, 13]
++ (++, >100 spikes/second): odor response (frequency of action potentials during stimulus minus baseline), 2C [7] | odor response (frequency of action potentials during stimulus minus baseline), 6B [11]

CC1=CCC(C(C)C)=CC1 [γ-terpinene]
0: odor response (frequency of action potentials during stimulus minus baseline), 6C [1] | odor response (frequency of action potentials during stimulus minus baseline), 2A [2] | odor response (frequency of action potentials during stimulus minus baseline), 7B [3, 13] | odor response (frequency of action potentials during stimulus minus baseline), 4A [5] | odor response (frequency of action potentials during stimulus minus baseline), 7C [6] | odor response (frequency of action potentials during stimulus minus baseline), 2C [7] | odor response (frequency of action potentials during stimulus minus baseline), 4C [8] | odor response (frequency of action potentials during stimulus minus baseline), 7A [9] | odor response (frequency of action potentials during stimulus minus baseline), 6A [10] | odor response (frequency of action potentials during stimulus minus baseline), 2B [12]
+++ (+++, >150 spikes/second): odor response (frequency of action potentials during stimulus minus baseline), 4B [4, 13]
++ (++, >100 spikes/second): odor response (frequency of action potentials during stimulus minus baseline), 6B [11]

O=Cc1ccccc1 [benzaldehyde]
0: odor response (frequency of action potentials during stimulus minus baseline), 6C [1] | odor response (frequency of action potentials during stimulus minus baseline), 2A [2] | odor response (frequency of action potentials during stimulus minus baseline), 7B [3, 13] | odor response (frequency of action potentials during stimulus minus baseline), 4A [5] | odor response (frequency of action potentials during stimulus minus baseline), 7C [6] | odor response (frequency of action potentials during stimulus minus baseline), 4C [8] | odor response (frequency of action potentials during stimulus minus baseline), 7A [9] | odor response (frequency of action potentials during stimulus minus baseline), 6A [10] | odor response (frequency of action potentials during stimulus minus baseline), 6B [11] | odor response (frequency of action potentials during stimulus minus baseline), 2B [12]
+ (+, >50 spikes/second): odor response (frequency of action potentials during stimulus minus baseline), 4B [4, 13] | odor response (frequency of action potentials during stimulus minus baseline), 2C [7]

CCCCCCCCO [1-octanol]
0: odor response (frequency of action potentials during stimulus minus baseline), 6C [1] | odor response (frequency of action potentials during stimulus minus baseline), 2A [2] | odor response (frequency of action potentials during stimulus minus baseline), 7B [3, 13] | odor response (frequency of action potentials during stimulus minus baseline), 4A [5] | odor response (frequency of action potentials during stimulus minus baseline), 7C [6] | odor response (frequency of action potentials during stimulus minus baseline), 2C [7] | odor response (frequency of action potentials during stimulus minus baseline), 4C [8] | odor response (frequency of action potentials during stimulus minus baseline), 7A [9] | odor response (frequency of action potentials during stimulus minus baseline), 6A [10] | odor response (frequency of action potentials during stimulus minus baseline), 2B [12]
+ (+, >50 spikes/second): odor response (frequency of action potentials during stimulus minus baseline), 4B [4, 13] | odor response (frequency of action potentials during stimulus minus baseline), 6B [11]

CCCSSCCC [dipropyl disulfide]
0: odor response (frequency of action potentials during stimulus minus baseline), 6C [1] | odor response (frequency of action potentials during stimulus minus baseline), 2A [2] | odor response (frequency of action potentials during stimulus minus baseline), 7B [3, 13] | odor response (frequency of action potentials during stimulus minus baseline), 4A [5] | odor response (frequency of action potentials during stimulus minus baseline), 7C [6] | odor response (frequency of action potentials during stimulus minus baseline), 2C [7] | odor response (frequency of action potentials during stimulus minus baseline), 4C [8] | odor response (frequency of action potentials during stimulus minus baseline), 7A [9] | odor response (frequency of action potentials during stimulus minus baseline), 6A [10] | odor response (frequency of action potentials during stimulus minus baseline), 2B [12]
+ (+, >50 spikes/second): odor response (frequency of action potentials during stimulus minus baseline), 4B [4, 13]
++ (++, >100 spikes/second): odor response (frequency of action potentials during stimulus minus baseline), 6B [11]

CCCCCCCCCC=O [decanal]
++ (++, >100 spikes/second): odor response (frequency of action potentials during stimulus minus baseline), 7C [6] | odor response (frequency of action potentials during stimulus minus baseline), 6B [11]
+++ (+++, >150 spikes/second): odor response (frequency of action potentials during stimulus minus baseline), 4B [4, 13]
0: odor response (frequency of action potentials during stimulus minus baseline), 6C [1] | odor response (frequency of action potentials during stimulus minus baseline), 2A [2] | odor response (frequency of action potentials during stimulus minus baseline), 7B [3, 13] | odor response (frequency of action potentials during stimulus minus baseline), 4A [5] | odor response (frequency of action potentials during stimulus minus baseline), 2C [7] | odor response (frequency of action potentials during stimulus minus baseline), 4C [8] | odor response (frequency of action potentials during stimulus minus baseline), 7A [9] | odor response (frequency of action potentials during stimulus minus baseline), 6A [10] | odor response (frequency of action potentials during stimulus minus baseline), 2B [12]

O [water]
+ (+, >50 spikes/second): odor response (frequency of action potentials during stimulus minus baseline), 6C [1] | odor response (frequency of action potentials during stimulus minus baseline), 4C [8]
0: odor response (frequency of action potentials during stimulus minus baseline), 2A [2] | odor response (frequency of action potentials during stimulus minus baseline), 7B [3] | odor response (frequency of action potentials during stimulus minus baseline), 4B [4] | odor response (frequency of action potentials during stimulus minus baseline), 4A [5] | odor response (frequency of action potentials during stimulus minus baseline), 7C [6] | odor response (frequency of action potentials during stimulus minus baseline), 2C [7] | odor response (frequency of action potentials during stimulus minus baseline), 7A [9] | odor response (frequency of action potentials during stimulus minus baseline), 6A [10] | odor response (frequency of action potentials during stimulus minus baseline), 6B [11] | odor response (frequency of action potentials during stimulus minus baseline), 2B [12]

CC/C=C\CC=O [Z3-hexenal]
+ (+, >50 spikes/second): odor response (frequency of action potentials during stimulus minus baseline), 7B [3, 13]
0: odor response (frequency of action potentials during stimulus minus baseline), 6C [1] | odor response (frequency of action potentials during stimulus minus baseline), 2A [2] | odor response (frequency of action potentials during stimulus minus baseline), 4B [4, 13] | odor response (frequency of action potentials during stimulus minus baseline), 7C [6] | odor response (frequency of action potentials during stimulus minus baseline), 2C [7] | odor response (frequency of action potentials during stimulus minus baseline), 4C [8] | odor response (frequency of action potentials during stimulus minus baseline), 7A [9] | odor response (frequency of action potentials during stimulus minus baseline), 6B [11] | odor response (frequency of action potentials during stimulus minus baseline), 2B [12]
++ (++, >100 spikes/second): odor response (frequency of action potentials during stimulus minus baseline), 4A [5] | odor response (frequency of action potentials during stimulus minus baseline), 6A [10]

CC(C)=CCCC(C)CC=O (stereo not drawn) [citronellal]
0: odor response (frequency of action potentials during stimulus minus baseline), 6C [1] | odor response (frequency of action potentials during stimulus minus baseline), 2A [2] | odor response (frequency of action potentials during stimulus minus baseline), 7B [3, 13] | odor response (frequency of action potentials during stimulus minus baseline), 4B [4, 13] | odor response (frequency of action potentials during stimulus minus baseline), 4A [5] | odor response (frequency of action potentials during stimulus minus baseline), 7C [6] | odor response (frequency of action potentials during stimulus minus baseline), 4C [8] | odor response (frequency of action potentials during stimulus minus baseline), 7A [9] | odor response (frequency of action potentials during stimulus minus baseline), 6A [10] | odor response (frequency of action potentials during stimulus minus baseline), 6B [11] | odor response (frequency of action potentials during stimulus minus baseline), 2B [12]
+ (+, >50 spikes/second): odor response (frequency of action potentials during stimulus minus baseline), 2C [7]

C=C/C(C)=C\C/C=C(\C)CCC=C(C)C [ZE-α-farnesene]
+ (+, >50 spikes/second): odor response (frequency of action potentials during stimulus minus baseline), 2C [7]
0: odor response (frequency of action potentials during stimulus minus baseline), 6C [1] | odor response (frequency of action potentials during stimulus minus baseline), 2A [2] | odor response (frequency of action potentials during stimulus minus baseline), 7B [3, 13] | odor response (frequency of action potentials during stimulus minus baseline), 4B [4, 13] | odor response (frequency of action potentials during stimulus minus baseline), 4A [5] | odor response (frequency of action potentials during stimulus minus baseline), 7C [6] | odor response (frequency of action potentials during stimulus minus baseline), 4C [8] | odor response (frequency of action potentials during stimulus minus baseline), 7A [9] | odor response (frequency of action potentials during stimulus minus baseline), 6A [10] | odor response (frequency of action potentials during stimulus minus baseline), 6B [11] | odor response (frequency of action potentials during stimulus minus baseline), 2B [12]

CC(=O)c1ccccc1 [acetophenone]
++ (++, >100 spikes/second): odor response (frequency of action potentials during stimulus minus baseline), 4B [4, 13] | odor response (frequency of action potentials during stimulus minus baseline), 6B [11]
0: odor response (frequency of action potentials during stimulus minus baseline), 6C [1] | odor response (frequency of action potentials during stimulus minus baseline), 2A [2] | odor response (frequency of action potentials during stimulus minus baseline), 7B [3, 13] | odor response (frequency of action potentials during stimulus minus baseline), 4A [5] | odor response (frequency of action potentials during stimulus minus baseline), 2C [7] | odor response (frequency of action potentials during stimulus minus baseline), 4C [8] | odor response (frequency of action potentials during stimulus minus baseline), 7A [9] | odor response (frequency of action potentials during stimulus minus baseline), 6A [10] | odor response (frequency of action potentials during stimulus minus baseline), 2B [12]
+ (+, >50 spikes/second): odor response (frequency of action potentials during stimulus minus baseline), 7C [6]
